Laboratory results published in ChEMBL document CHEMBL2150873, “Identification of imidazo-pyrrolopyridines as novel and potent JAK1 inhibitors” (J Med Chem, 2012).
One block for each compound: values may come before it.

Assays:
[1] = in vitro; conditions: human, liver microsomes, t1/2
[2] = Apparent permeability from apical to basal side of MDCK cells at 10 uM; type: ADME, cell-based, Canis lupus familiaris; conditions: dog
[3] = test system: Rattus norvegicus; test: Dose normalized AUC in Sprague-Dawley rat at 5 mg/kg, po; type: ADME, organism-based; set-up: dose 5 mg/kg, route oral; conditions: in vivo
[4] = Half life in Sprague-Dawley rat hepatocytes at 1 uM by LC/MS/MS analysis; type: ADME, cell-based, Liver, Hepatocyte
[5] = Dose normalized volume of distribution at steady state in Sprague-Dawley rat at 1 mg/kg, iv and 5 mg/kg, po; type: ADME, organism-based; conditions: in vivo, read-out: Vdss/dose
[6] = Dose normalized oral bioavailability in Sprague-Dawley rat at 5 mg/kg; type: ADME, organism-based; conditions: in vivo, read-out: F/dose
[7] = Lipophilicity, log D of the compound after 1 hr by LC/MS/MS analysis at pH 7.2; type: physicochemical; conditions: buffer
[8] = test system: Rattus norvegicus; test: Dose normalized Cmax in Sprague-Dawley rat at 5 mg/kg, po; type: ADME, organism-based; set-up: dose 5 mg/kg, route oral; conditions: in vivo
[9] = Dose normalized clearance in Sprague-Dawley rat at 1 mg/kg, iv; type: ADME, organism-based; set-up: dose 1 mg/kg, route intravenous; conditions: in vivo, read-out: Dose normalized clearance
[10] = test system: Liver microsomes; conditions: human

SMILES: CN1CCC[C@H]1C(=O)N1CCC(n2cnc3cnc4[nH]ccc4c32)CC1
half-life [1]: 4.7 h

SMILES: CN1CCC[C@@H]1C(=O)N1CCC(n2cnc3cnc4[nH]ccc4c32)CC1
half-life [1]: 2.8 h

SMILES: CC(C)C(=O)N[C@H]1CC[C@H](n2cnc3cnc4[nH]ccc4c32)CC1
half-life [1]: 2.7 h

SMILES: COC(=O)N(C)[C@H]1CC[C@H](n2cnc3cnc4[nH]ccc4c32)CC1
half-life [1]: > 10 h

SMILES: CS(=O)(=O)N[C@H]1CC[C@H](n2cnc3cnc4[nH]ccc4c32)CC1
half-life [1]: 1.8 h

SMILES: CC1(n2cnc3cnc4[nH]ccc4c32)CCN(Cc2cncnc2)CC1
half-life [1]: 1.6 h

SMILES: N#Cc1cccc(CN[C@H]2CC[C@H](n3cnc4cnc5[nH]ccc5c43)CC2)c1
half-life [1]: 0.8 h

SMILES: CS(=O)(=O)N1CCC(n2cnc3cnc4[nH]ccc4c32)CC1
Papp A→B at 10 µM [2]: 1.2 ×10⁻⁶ cm/s
AUC/dose [3]: 2.3 µM·h
half-life at 1 µM [4]: > 10 h
Vd [5]: 1.46 L/kg
bioavailability [6]: 36%
half-life [1]: 2.2 h
logD at 1 h [7]: 1.04
Cmax/dose [8]: 2900 nM
clearance [9]: 45 mL/min/kg

SMILES: CN(C)CC(=O)N1CCC(n2cnc3cnc4[nH]ccc4c32)CC1
half-life [1]: 1.5 h

SMILES: CC(C)(C)OC(=O)N[C@H]1CC[C@H](n2cnc3cnc4[nH]ccc4c32)CC1
half-life [1]: 1.5 h
logD at 1 h [7]: 3.2

SMILES: N[C@H]1CC[C@H](n2cnc3cnc4[nH]ccc4c32)CC1
Papp A→B at 10 µM [2]: 0.2 ×10⁻⁶ cm/s
AUC/dose [3]: 0.22 µM·h
half-life at 1 µM [4]: > 10 h
Vd [5]: 13.9 L/kg
bioavailability [6]: < 1%
half-life [1]: 3.7 h
logD at 1 h [7]: -0.44
Cmax/dose [8]: 20 nM
clearance [9]: 65 mL/min/kg

SMILES: CC1(n2cnc3cnc4[nH]ccc4c32)CCNCC1
half-life [1]: > 10 h

SMILES: CC1(n2cnc3cnc4[nH]ccc4c32)CCN(CCC#N)CC1
half-life [1]: 2.3 h

SMILES: COC(=O)N[C@H]1CC[C@H](n2cnc3cnc4[nH]ccc4c32)CC1
half-life [1]: > 10 h
logD at 1 h [7]: 1.9

SMILES: c1ccc(CN2CCC(n3cnc4cnc5[nH]ccc5c43)CC2)cc1
Papp A→B at 10 µM [2]: 32.3 ×10⁻⁶ cm/s
half-life at 1 µM [4]: 0.5 h
Vd [5]: 6.39 L/kg
bioavailability [6]: < 1%
half-life [1]: 0.8 h
logD at 1 h [7]: 2.9
Cmax/dose [8]: 40 nM
clearance [9]: 170 mL/min/kg

SMILES: CC(C)(C)OC(=O)N[C@H]1CC[C@@H](n2cnc3cnc4[nH]ccc4c32)C1 (racemic)
half-life [1]: 1.8 h

SMILES: CCN1CCC(n2cnc3cnc4[nH]ccc4c32)CC1
half-life [1]: 2.5 h

SMILES: N#CCCN1CCC(n2cnc3cnc4[nH]ccc4c32)CC1
Papp A→B at 10 µM [2]: 8.2 ×10⁻⁶ cm/s
AUC/dose [3]: 1.6 µM·h
half-life at 1 µM [4]: > 10 h
Vd [5]: 2.37 L/kg
bioavailability [6]: 48%
half-life [1]: 7.5 h
logD at 1 h [7]: 1.72
Cmax/dose [8]: 1800 nM
clearance [9]: 96 mL/min/kg

SMILES: CC1(n2cnc3cnc4[nH]ccc4c32)CCN(S(C)(=O)=O)CC1
Papp A→B at 10 µM [2]: 2.5 ×10⁻⁶ cm/s
AUC/dose [3]: 2.3 µM·h
half-life at 1 µM [4]: > 10 h
Vd [5]: 2.72 L/kg
bioavailability [6]: 74%
half-life [1]: > 10 h
logD at 1 h [7]: 1.14
Cmax/dose [8]: 800 nM
clearance [9]: 82 mL/min/kg

Next, values leading:

half-life [1]: 5.5 h
SMILES: N[C@H]1CC[C@@H](n2cnc3cnc4[nH]ccc4c32)CC1

half-life [1]: 3.5 h
SMILES: CN1CCCC[C@H]1C(=O)N1CCC(n2cnc3cnc4[nH]ccc4c32)CC1

half-life [1]: 2 h
SMILES: N#CCC(=O)N1CCC(n2cnc3cnc4[nH]ccc4c32)CC1

half-life [1]: 3.8 h
SMILES: FC(F)(F)CN1CCC(n2cnc3cnc4[nH]ccc4c32)CC1

half-life [1]: 1.3 h
SMILES: CC(C)N1CCC[C@H]1C(=O)N1CCC(n2cnc3cnc4[nH]ccc4c32)CC1

half-life [1]: 5.8 h
logD at 1 h [7]: 1.2
SMILES: COC(=O)N[C@@H]1CC[C@@H](n2cnc3cnc4[nH]ccc4c32)C1 (racemic)

half-life [1]: 3.7 h
SMILES: c1cc2c(ncc3ncn([C@H]4CC[C@@H](N5CCOCC5)CC4)c32)[nH]1

half-life [1]: 1.4 h
SMILES: O=C(c1ccccc1)N1CCC(n2cnc3cnc4[nH]ccc4c32)CC1

half-life [1]: 0.7 h
SMILES: O=S(=O)(c1ccccc1)N1CCC(n2cnc3cnc4[nH]ccc4c32)CC1

Papp A→B at 10 µM [2]: 1.5 ×10⁻⁶ cm/s
AUC/dose [3]: 0.7 µM·h
half-life at 1 µM [4]: 9.8 h
Vd [5]: 3.96 L/kg
bioavailability [6]: 28%
half-life [1]: 5 h
logD at 1 h [7]: 0.97
Cmax/dose [8]: 600 nM
clearance [9]: 120 mL/min/kg
SMILES: N#CCCN[C@H]1CC[C@H](n2cnc3cnc4[nH]ccc4c32)CC1

half-life [1]: 0.5 h
SMILES: CC(C)CC(=O)N1CCC(n2cnc3cnc4[nH]ccc4c32)CC1

half-life [1]: 4.7 h
SMILES: c1cc2c(ncc3ncn([C@H]4CC[C@H](NCC5CC5)CC4)c32)[nH]1

half-life [1]: 4 h
SMILES: c1ncc(CN2CCC(n3cnc4cnc5[nH]ccc5c43)CC2)cn1

half-life [1]: 6.8 h
SMILES: c1cc2c(ncc3ncn([C@H]4CC[C@H](N5CCOCC5)CC4)c32)[nH]1

half-life [1]: 1.6 h
SMILES: CC1(n2cnc3cnc4[nH]ccc4c32)CCN(CC(F)(F)F)CC1

Papp A→B at 10 µM [2]: 0.3 ×10⁻⁶ cm/s
AUC/dose [3]: 0.3 µM·h
half-life at 1 µM [4]: > 10 h
Vd [5]: 1.87 L/kg
bioavailability [6]: 5%
half-life [1]: 1.4 h
logD at 1 h [7]: 0.39
Cmax/dose [8]: 50 nM
clearance [9]: 85 mL/min/kg
SMILES: N#CCC(=O)N1CCC[C@@H](n2cnc3cnc4[nH]ccc4c32)C1

Papp A→B at 10 µM [2]: 11.2 ×10⁻⁶ cm/s
AUC/dose [3]: 1.3 µM·h
t1/2 [10]: 5.6 h
half-life at 1 µM [4]: 2.2 h
Vd [5]: 2.53 L/kg
bioavailability [6]: 73%
logD at 1 h [7]: 2.99
Cmax/dose [8]: 1100 nM
clearance [9]: 140 mL/min/kg
SMILES: CC(C)(C)OC(=O)N[C@@H]1CC[C@@H](n2cnc3cnc4[nH]ccc4c32)C1

half-life [1]: 5.5 h
SMILES: CC(C)(C)OC(=O)N[C@@H]1CC[C@@H](n2cnc3cnc4[nH]ccc4c32)C1 (racemic)
